Columns and labels:
Assay type in all cases: functional, HCT-116
[1] = Antitumor activity against human HCT116 cells xenografted in athymic nude mouse assessed as tumor volume at 30 mg/kg, po bid administered for 21 days measured on day 8 post last dose (reference value: 38.5 +/- 4.1 mm'3)
[2] = Antitumor activity against human HCT116 cells xenografted in athymic nude mouse assessed as tumor volume at 30 mg/kg, po bid administered for 21 days measured on day 13 post last dose (reference value: 100.9 +/- 13.7 mm'3)
[3] = Antitumor activity against human HCT116 cells xenografted in athymic nude mouse assessed as tumor volume at 30 mg/kg, po bid administered for 21 days measured on day 16 post last dose (reference value: 163.1 +/- 25.7 mm'3)
[4] = Antitumor activity against human HCT116 cells xenografted in athymic nude mouse assessed as tumor volume at 30 mg/kg, po bid administered for 21 days measured on day 20 post last dose (reference value: 287.1 +/- 31.9 mm'3)
[5] = Antitumor activity against human HCT116 cells xenografted in athymic nude mouse assessed as tumor volume at 30 mg/kg, po bid administered for 21 days measured on day 23 post last dose (reference value: 402.2 +/- 43.1 mm'3)
[6] = Antitumor activity against human HCT116 cells xenografted in athymic nude mouse assessed as tumor volume at 30 mg/kg, po bid administered for 21 days measured on day 27 post last dose (Rvb= 545 +/- 41.1 mm'3)
[7] = Antitumor activity against human HCT116 cells xenografted in athymic nude mouse assessed as tumor volume at 60 mg/kg, po bid administered for 21 days measured on day 8 post last dose (reference value: 38.5 +/- 4.1 mm'3)
[8] = Antitumor activity against human HCT116 cells xenografted in athymic nude mouse assessed as tumor volume at 60 mg/kg, po bid administered for 21 days measured on day 13 post last dose (reference value: 100.9 +/- 13.7 mm'3)
[9] = Antitumor activity against human HCT116 cells xenografted in athymic nude mouse assessed as tumor volume at 60 mg/kg, po bid administered for 21 days measured on day 16 post last dose (reference value: 163.1 +/- 25.7 mm'3)
[10] = Antitumor activity against human HCT116 cells xenografted in athymic nude mouse assessed as tumor volume at 60 mg/kg, po bid administered for 21 days measured on day 20 post last dose (reference value: 287.1 +/- 31.9 mm'3)
[11] = Antitumor activity against human HCT116 cells xenografted in athymic nude mouse assessed as tumor volume at 60 mg/kg, po bid administered for 21 days measured on day 23 post last dose (reference value: 402.2 +/- 43.1 mm'3)
[12] = Antitumor activity against human HCT116 cells xenografted in athymic nude mouse assessed as tumor volume at 60 mg/kg, po bid administered for 21 days measured on day 27 post last dose (Rvb= 545 +/- 41.1 mm'3)
[13] = Antitumor activity against human HCT116 cells xenografted in athymic nude mouse assessed as tumor volume at 60 mg/kg, po qd administered for 21 days measured on day 8 post last dose (reference value: 38.5 +/- 4.1 mm'3)
[14] = Antitumor activity against human HCT116 cells xenografted in athymic nude mouse assessed as tumor volume at 60 mg/kg, po qd administered for 21 days measured on day 13 post last dose (reference value: 100.9 +/- 13.7 mm'3)
[15] = Antitumor activity against human HCT116 cells xenografted in athymic nude mouse assessed as tumor volume at 60 mg/kg, po qd administered for 21 days measured on day 16 post last dose (reference value: 163.1 +/- 25.7 mm'3)
[16] = Antitumor activity against human HCT116 cells xenografted in athymic nude mouse assessed as tumor volume at 60 mg/kg, po qd administered for 21 days measured on day 20 post last dose (reference value: 287.1 +/- 31.9 mm'3)
[17] = Antitumor activity against human HCT116 cells xenografted in athymic nude mouse assessed as tumor volume at 60 mg/kg, po qd administered for 21 days measured on day 23 post last dose (reference value: 402.2 +/- 43.1 mm'3)
[18] = Antitumor activity against human HCT116 cells xenografted in athymic nude mouse assessed as tumor volume at 60 mg/kg, po qd administered for 21 days measured on day 27 post last dose (Rvb= 545 +/- 41.1 mm'3)

## Cl.FC(F)(F)c1cccc(-c2c[nH]c(C3CCN(c4ncnc5[nH]ncc45)CC3)n2)c1
[1]
  Activity: 36.5 mm3
[2]
  Activity: 58.7 mm3
[3]
  Activity: 90.9 mm3
[4]
  Activity: 134.6 mm3
[5]
  Activity: 192.7 mm3
[6]
  Activity: 296.3 mm3
[7]
  Activity: 28.8 mm3
[8]
  Activity: 42.1 mm3
[9]
  Activity: 72.1 mm3
[10]
  Activity: 139 mm3
[11]
  Activity: 188.4 mm3
[12]
  Activity: 280 mm3
[13]
  Activity: 30.6 mm3
[14]
  Activity: 57.8 mm3
[15]
  Activity: 85 mm3
[16]
  Activity: 142.5 mm3
[17]
  Activity: 194.5 mm3
[18]
  Activity: 252.7 mm3
